Test system: Wistar outbred rats
Assay: Single-dose acute toxicity, intragastric administration
Format: in vivo, rat
Details: for Changes Appearance / Changes Behavior / Changes Body Weight / Changes Feed Intake / Changes Organ Histology / Changes Organ Weight / Changes Water Intake: 14-day follow-up; for Relative organ weight, Adrenal glands / Relative organ weight, Brain / Relative organ weight, Heart / Relative organ weight, Kidneys / Relative organ weight, Liver / Relative organ weight, Lungs with trachea / Relative organ weight, Ovaries / Relative organ weight, Spleen / Relative organ weight, Thymus / Relative organ weight, Testes: after 15 days, M±SEM; for number of animals that died: all dose groups; for Deaths (Dead/ Total): Wistar, rat, in vivo
Method: Before administration, the BX-SI043 substance was resuspended in a 1% starch solution. The animals in the treatment groups received suspensions intragastrically in doses of 2000 mg/kg (administered in two equal doses, with a 30–40 min interval), 1000 mg/kg, 600 mg/kg, and 300 mg/kg (administered in single doses).
The animals were monitored daily for any abnormalities. On the 2nd, 7th, and 13th days after administration, the animals were clinically evaluated and weighed, and the consumption of feed and water were measured. On the 14th day, the behavior of the animals was evaluated. On the 15th day, the animals were euthanized, and the lungs (with trachea), heart, thymus, liver, kidneys, spleen, stomach, small intestine, colon, brain, adrenal glands, and testes/ovaries were fixed in 10% neutral formalin for histological evaluation.

[1] = female rats, 300 mg/kg intragastric
[2] = female rats, 600 mg/kg intragastric
[3] = female rats, 1000 mg/kg intragastric
[4] = female rats, 2000 mg/kg intragastric
[5] = male rats, 300 mg/kg intragastric
[6] = male rats, 600 mg/kg intragastric
[7] = male rats, 1000 mg/kg intragastric
[8] = male rats, 2000 mg/kg intragastric

## CCOC(=O)c1[nH]c2cc(F)ccc2c1/N=N/N1CCCC1 [BX-SI043, Ethyl (E)-6-fluoro-3-(pyrrolidin-1-yldiazenyl)-1H-indole-2-carboxylate]
[1]
  Changes Appearance: no
  Changes Behavior: no
  Changes Body Weight: no
  Changes Feed Intake: no
  Changes Organ Histology: no
  Changes Organ Weight: no
  Changes Water Intake: no
  Relative organ weight, Adrenal glands: 0,03±0,003 % of body weight
  Relative organ weight, Brain: 0,84±0,032 % of body weight
  Relative organ weight, Heart: 0,46±0,012 % of body weight
  Relative organ weight, Kidneys: 0,87±0,065 % of body weight
  Relative organ weight, Liver: 4,79±0,090 % of body weight
  Relative organ weight, Lungs with trachea: 0,77±0,037 % of body weight
  Relative organ weight, Ovaries: 0,067±0,0043 % of body weight
  Relative organ weight, Spleen: 0,37±0,033 % of body weight
  Relative organ weight, Thymus: 0,280±0,016 % of body weight
Female rats, 300 mg/kg intragastric, experiment day 1
  Body weight, M±SEM: 195,3±3,67 g
Female rats, 300 mg/kg intragastric, experiment day 2
  Body weight, M±SEM: 194,8±3,92 g
Female rats, 300 mg/kg intragastric, experiment day 7
  Body weight, M±SEM: 220,0±7,86 g
Female rats, 300 mg/kg intragastric, experiment day 15
  Body weight, M±SEM: 234,7±9,33 g
[2]
  Changes Appearance: no
  Changes Behavior: no
  Changes Body Weight: no
  Changes Feed Intake: no
  Changes Organ Histology: yes
  Changes Organ Weight: no
  Changes Water Intake: no
  Relative organ weight, Adrenal glands: 0,04±0,002 % of body weight
  Relative organ weight, Brain: 0,86±0,031 % of body weight
  Relative organ weight, Heart: 0,48±0,007 % of body weight
  Relative organ weight, Kidneys: 0,78±0,021 % of body weight
  Relative organ weight, Liver: 4,64±0,067 % of body weight
  Relative organ weight, Lungs with trachea: 0,82±0,044 % of body weight
  Relative organ weight, Ovaries: 0,066±0,0032 % of body weight
  Relative organ weight, Spleen: 0,33±0,045 % of body weight
  Relative organ weight, Thymus: 0,310±0,013 % of body weight
Female rats, 600 mg/kg intragastric, experiment day 1
  Body weight, M±SEM: 195,2±4,56 g
Female rats, 600 mg/kg intragastric, experiment day 2
  Body weight, M±SEM: 207,7±4,08 g
Female rats, 600 mg/kg intragastric, experiment day 7
  Body weight, M±SEM: 222,5±5,43 g
Female rats, 600 mg/kg intragastric, experiment day 15
  Body weight, M±SEM: 221,2±5,98 g
[3]
  Changes Appearance: no
  Changes Behavior: yes
  Changes Body Weight: no
  Changes Feed Intake: yes
  Changes Organ Histology: yes
  Changes Organ Weight: no
  Changes Water Intake: no
  Relative organ weight, Adrenal glands: 0,04±0,004 % of body weight
  Relative organ weight, Brain: 0,97±0,022 % of body weight
  Relative organ weight, Heart: 0,52±0,02 % of body weight
  Relative organ weight, Kidneys: 0,82±0,027 % of body weight
  Relative organ weight, Liver: 4,67±0,23 % of body weight
  Relative organ weight, Lungs with trachea: 0,79±0,057 % of body weight
  Relative organ weight, Ovaries: 0,085±0,0075 % of body weight
  Relative organ weight, Spleen: 0,42±0,05 % of body weight
  Relative organ weight, Thymus: 0,270±0,020 % of body weight
Female rats, 1000 mg/kg intragastric, experiment day 1
  Body weight, M±SEM: 185,7±4,61 g
Female rats, 1000 mg/kg intragastric, experiment day 2
  Body weight, M±SEM: 192,2±3,94 g
Female rats, 1000 mg/kg intragastric, experiment day 7
  Body weight, M±SEM: 189,6±6,16 g
Female rats, 1000 mg/kg intragastric, experiment day 15
  Body weight, M±SEM: 199,2±6,46 g
[4]
  Changes Appearance: yes
  Changes Behavior: yes
  Changes Body Weight: no
  Changes Feed Intake: yes
  Changes Organ Histology: yes
  Changes Organ Weight: no
  Changes Water Intake: no
  Relative organ weight, Adrenal glands: 0,04±0,004 % of body weight
  Relative organ weight, Brain: 0,93±0,027 % of body weight
  Relative organ weight, Heart: 0,41±0,079 % of body weight
  Relative organ weight, Kidneys: 0,89±0,033 % of body weight
  Relative organ weight, Liver: 4,73±0,167 % of body weight
  Relative organ weight, Lungs with trachea: 0,9±0,07 % of body weight
  Relative organ weight, Ovaries: 0,088±0,0092 % of body weight
  Relative organ weight, Spleen: 0,38±0,028 % of body weight
  Relative organ weight, Thymus: 0,310±0,032 % of body weight
Female rats, 2000 mg/kg intragastric, experiment day 1
  Body weight, M±SEM: 196,5±2,06 g
Female rats, 2000 mg/kg intragastric, experiment day 2
  Body weight, M±SEM: 205,8±1,64 g
Female rats, 2000 mg/kg intragastric, experiment day 7
  Body weight, M±SEM: 183,5±11,99 g
Female rats, 2000 mg/kg intragastric, experiment day 15
  Body weight, M±SEM: 210,8±5,91 g
Female rats
  number of animals that died: 2 animals
female, 300 mg/kg, 14 days
  Deaths (Dead/ Total): 0/6
female, 600 mg/kg, 14 days
  Deaths (Dead/ Total): 0/6
female, 1000 mg/kg, 14 days
  Deaths (Dead/ Total): 1/6
female, 2000 mg/kg, 14 days
  Deaths (Dead/ Total): 1/6
[5]
  Changes Appearance: no
  Changes Behavior: no
  Changes Body Weight: no
  Changes Feed Intake: no
  Changes Organ Histology: no
  Changes Organ Weight: no
  Changes Water Intake: no
  Relative organ weight, Adrenal glands: 0,022±0,0012 % of body weight
  Relative organ weight, Brain: 0,77±0,020 % of body weight
  Relative organ weight, Heart: 0,45±0,012 % of body weight
  Relative organ weight, Kidneys: 0,98±0,046 % of body weight
  Relative organ weight, Liver: 4,53±0,26 % of body weight
  Relative organ weight, Lungs with trachea: 0,71±0,034 % of body weight
  Relative organ weight, Spleen: 0,34±0,017 % of body weight
  Relative organ weight, Testes: 1,17±0,039 % of body weight
  Relative organ weight, Thymus: 0,246±0,0276 % of body weight
Male rats, 300 mg/kg intragastric, experiment day 1
  Body weight, M±SEM: 202,8±2,87 g
Male rats, 300 mg/kg intragastric, experiment day 2
  Body weight, M±SEM: 205,7±1,73 g
Male rats, 300 mg/kg intragastric, experiment day 7
  Body weight, M±SEM: 256,7±4,65 g
Male rats, 300 mg/kg intragastric, experiment day 15
  Body weight, M±SEM: 280,8±8,21 g
[6]
  Changes Appearance: no
  Changes Behavior: no
  Changes Body Weight: no
  Changes Feed Intake: no
  Changes Organ Histology: yes
  Changes Organ Weight: no
  Changes Water Intake: no
  Relative organ weight, Adrenal glands: 0,028±0,0017 % of body weight
  Relative organ weight, Brain: 0,77±0,013 % of body weight
  Relative organ weight, Heart: 0,50±0,013 % of body weight
  Relative organ weight, Kidneys: 0,94±0,031 % of body weight
  Relative organ weight, Liver: 4,69±0,216 % of body weight
  Relative organ weight, Lungs with trachea: 0,86±0,108 % of body weight
  Relative organ weight, Spleen: 0,32±0,036 % of body weight
  Relative organ weight, Testes: 1,28±0,033 % of body weight
  Relative organ weight, Thymus: 0,27±0,0191 % of body weight
Male rats, 600 mg/kg intragastric, experiment day 1
  Body weight, M±SEM: 201,3±2,80 g
Male rats, 600 mg/kg intragastric, experiment day 2
  Body weight, M±SEM: 222,2±2,63 g
Male rats, 600 mg/kg intragastric, experiment day 7
  Body weight, M±SEM: 253,3±4,15 g
Male rats, 600 mg/kg intragastric, experiment day 15
  Body weight, M±SEM: 274,3±6,51 g
[7]
  Changes Appearance: no
  Changes Behavior: yes
  Changes Body Weight: no
  Changes Feed Intake: yes
  Changes Organ Histology: yes
  Changes Organ Weight: no
  Changes Water Intake: no
  Relative organ weight, Adrenal glands: 0,027±0,0022 % of body weight
  Relative organ weight, Brain: 0,77±0,036 % of body weight
  Relative organ weight, Heart: 0,51±0,022 % of body weight
  Relative organ weight, Kidneys: 0,87±0,008 % of body weight
  Relative organ weight, Liver: 4,91±0,128 % of body weight
  Relative organ weight, Lungs with trachea: 1,00±0,096 % of body weight
  Relative organ weight, Spleen: 0,32±0,031 % of body weight
  Relative organ weight, Testes: 1,11±0,064 % of body weight
  Relative organ weight, Thymus: 0,278±0,0278 % of body weight
Male rats, 1000 mg/kg intragastric, experiment day 1
  Body weight, M±SEM: 191,0±5,79 g
Male rats, 1000 mg/kg intragastric, experiment day 2
  Body weight, M±SEM: 206,5±6,61 g
Male rats, 1000 mg/kg intragastric, experiment day 7
  Body weight, M±SEM: 231,8±12,48 g
Male rats, 1000 mg/kg intragastric, experiment day 15
  Body weight, M±SEM: 273,0±11,56 g
[8]
  Changes Appearance: yes
  Changes Behavior: yes
  Changes Body Weight: no
  Changes Feed Intake: yes
  Changes Organ Histology: yes
  Changes Organ Weight: no
  Changes Water Intake: no
  Relative organ weight, Adrenal glands: 0,026±0,0014 % of body weight
  Relative organ weight, Brain: 0,78±0,024 % of body weight
  Relative organ weight, Heart: 0,48±0,046 % of body weight
  Relative organ weight, Kidneys: 0,90±0,034 % of body weight
  Relative organ weight, Liver: 4,08±0,252 % of body weight
  Relative organ weight, Lungs with trachea: 0,75±0,037 % of body weight
  Relative organ weight, Spleen: 0,28±0,018 % of body weight
  Relative organ weight, Testes: 1,2±0,120 % of body weight
  Relative organ weight, Thymus: 0,20±0,0116 % of body weight
Male rats, 2000 mg/kg intragastric, experiment day 1
  Body weight, M±SEM: 196,0±1,61 g
Male rats, 2000 mg/kg intragastric, experiment day 2
  Body weight, M±SEM: 212,7±3,91 g
Male rats, 2000 mg/kg intragastric, experiment day 7
  Body weight, M±SEM: 236,0±1,53 g
Male rats, 2000 mg/kg intragastric, experiment day 15
  Body weight, M±SEM: 259,7±3,18 g
Male rats
  number of animals that died: 4 animals
male, 300 mg/kg, 14 day
  Deaths (Dead/ Total): 0/6
male, 600 mg/kg, 14 day
  Deaths (Dead/ Total): 0/6
male, 1000 mg/kg, 14 day
  Deaths (Dead/ Total): 1/6
male, 2000 mg/kg, 14 day
  Deaths (Dead/ Total): 3/6

From PMC11899342, “Novel Triazeneindole Antibiotics: Synthesis and Hit-to-Lead Optimization” (International Journal of Molecular Sciences, 2025)
